{
  "source": "BindingDB's records for doi:10.1021/np500757w",
  "about": "(University of California San Diego, 2015)",
  "target": "Endoplasmic reticulum chaperone BiP (Homo sapiens, UniProt P11021)",
  "sequence (P11021 whole entry)": "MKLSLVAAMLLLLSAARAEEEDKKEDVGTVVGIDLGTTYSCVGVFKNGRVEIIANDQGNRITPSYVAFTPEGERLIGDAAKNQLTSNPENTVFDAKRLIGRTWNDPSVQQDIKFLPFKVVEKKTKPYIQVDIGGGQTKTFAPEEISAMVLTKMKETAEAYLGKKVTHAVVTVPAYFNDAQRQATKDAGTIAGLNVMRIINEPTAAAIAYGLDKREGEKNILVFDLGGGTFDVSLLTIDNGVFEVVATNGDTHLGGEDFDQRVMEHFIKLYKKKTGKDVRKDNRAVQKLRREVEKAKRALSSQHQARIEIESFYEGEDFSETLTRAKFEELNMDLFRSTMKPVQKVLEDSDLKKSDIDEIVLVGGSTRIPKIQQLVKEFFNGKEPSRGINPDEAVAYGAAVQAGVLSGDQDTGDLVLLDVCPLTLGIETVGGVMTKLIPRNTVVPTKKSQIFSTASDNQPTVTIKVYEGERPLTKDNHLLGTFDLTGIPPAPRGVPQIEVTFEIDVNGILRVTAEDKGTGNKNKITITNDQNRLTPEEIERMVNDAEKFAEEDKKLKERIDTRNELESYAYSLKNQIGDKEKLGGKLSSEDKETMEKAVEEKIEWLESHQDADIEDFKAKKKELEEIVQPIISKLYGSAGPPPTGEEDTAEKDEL",
  "test": "Inhibition of 2-deoxyglucose-induced GRP78 (unknown origin) expression transfected in human HT1080 cells by luciferase reporter gene assay",
  "data": [
    {"smiles": "CC/C1=C/[C@H](CO)C[C@@H](C)[C@H](O[C@H]2C[C@H](O)[C@H](O[C@@H]3O[C@@H](C)[C@H](O[C@H]4C[C@H](O)[C@H](O)[C@@H](C)O4)[C@@H](OC)[C@H]3O)[C@@H](C)O2)[C@H](C)CCC[C@]2(C)C=C(C)[C@H](C)C[C@]23OC(=O)C(=C3O)C(=O)[C@@]2(CC)[C@H]3[C@H](C=C(C)[C@@H]12)[C@@H](O)CC(=O)[C@@H]3C", "values": [
      {"measurement": "IC50", "value": 300, "unit": "nM"}
    ]}
  ]
}
